Test system: MV-4-11 cells
Experiment: Gene expression microarray analysis (Affymetrix PrimeView) and GSEA
Format: cell-based, human
Design: RFU PODN (11730768_x_at) / Fold change /veh PODN (11730768_x_at) / RFU LINC00158 (11744669_a_at) / Fold change /veh LINC00158 (11744669_a_at) / RFU DUSP10 (11751237_a_at) / Fold change /veh DUSP10 (11751237_a_at) / RFU ID3 (11757404_x_at) / Fold change /veh ID3 (11757404_x_at) / RFU PLEKHG5 (11737974_s_at) / Fold change /veh PLEKHG5 (11737974_s_at) / RFU LRRC4B (11730491_at) / Fold change /veh LRRC4B (11730491_at) / RFU GIMAP4 (11747438_a_at) / Fold change /veh GIMAP4 (11747438_a_at) / RFU KRT8 (11758183_x_at) / Fold change /veh KRT8 (11758183_x_at) / RFU CNN1 (11734310_a_at) / Fold change /veh CNN1 (11734310_a_at) / RFU VPS37D (11726825_at) / Fold change /veh VPS37D (11726825_at) / RFU C10orf10 (11716522_x_at) / Fold change /veh C10orf10 (11716522_x_at) / RFU KIR2DL2 /// KIR2DL4 /// KIR2DL5A /// KIR2DL5B /// KIR2DS1 /// KIR2DS2 /// KIR2DS3 /// KIR2DS4 /// KIR3DL3 /// KIR3DL3 /// KIR3DS1 (11738374_at) / Fold change /veh KIR2DL2 /// KIR2DL4 /// KIR2DL5A /// KIR2DL5B /// KIR2DS1 /// KIR2DS2 /// KIR2DS3 /// KIR2DS4 /// KIR3DL3 /// KIR3DL3 /// KIR3DS1 (11738374_at) / RFU C1QL1 (11718748_at) / Fold change /veh C1QL1 (11718748_at) / RFU TMPRSS4 (11747572_a_at) / Fold change /veh TMPRSS4 (11747572_a_at) / RFU HAMP (11756126_x_at) / Fold change /veh HAMP (11756126_x_at) / RFU RNFT2 (11725882_a_at) / Fold change /veh RNFT2 (11725882_a_at) / RFU NR4A2 (11747474_a_at) / Fold change /veh NR4A2 (11747474_a_at) / RFU ABCC12 (11746883_a_at) / Fold change /veh ABCC12 (11746883_a_at) / RFU TMEM136 (11760407_x_at) / Fold change /veh TMEM136 (11760407_x_at) / RFU CLDN22 /// WWC2 (11732394_at) / Fold change /veh CLDN22 /// WWC2 (11732394_at) / RFU HLA-DPB1 (11760878_x_at) / Fold change /veh HLA-DPB1 (11760878_x_at) / RFU SPINT1 (11716480_a_at) / Fold change /veh SPINT1 (11716480_a_at) / RFU GAP43 (11754022_s_at) / Fold change /veh GAP43 (11754022_s_at) / RFU A4GNT (11735810_at) / Fold change /veh A4GNT (11735810_at) / RFU PRB3 (11715151_x_at) / Fold change /veh PRB3 (11715151_x_at) / RFU TUBB4B (11761932_at) / Fold change /veh TUBB4B (11761932_at) / RFU CAPN14 (11732068_a_at) / Fold change /veh CAPN14 (11732068_a_at) / RFU TMCC2 (11721928_a_at) / Fold change /veh TMCC2 (11721928_a_at) / RFU IRGQ (11745062_a_at) / Fold change /veh IRGQ (11745062_a_at) / RFU FAM174B (11720279_a_at) / Fold change /veh FAM174B (11720279_a_at) / RFU TMPRSS4 (11748680_a_at) / Fold change /veh TMPRSS4 (11748680_a_at) / RFU FAM212B (11763350_a_at) / Fold change /veh FAM212B (11763350_a_at) / RFU PLEKHG5 (11743358_a_at) / Fold change /veh PLEKHG5 (11743358_a_at) / RFU ZSCAN30 (11745921_a_at) / Fold change /veh ZSCAN30 (11745921_a_at) / RFU CMKLR1 (11741424_a_at) / Fold change /veh CMKLR1 (11741424_a_at) / RFU LOC101060620 /// MAPK8IP1 (11723275_at) / Fold change /veh LOC101060620 /// MAPK8IP1 (11723275_at) / RFU SPTSSB (11747773_x_at) / Fold change /veh SPTSSB (11747773_x_at) / RFU PRSS12 (11739890_at) / Fold change /veh PRSS12 (11739890_at) / RFU BIN1 (11741810_x_at) / Fold change /veh BIN1 (11741810_x_at) / RFU WNT11 (11732464_a_at) / Fold change /veh WNT11 (11732464_a_at) / RFU C10orf10 (11716521_a_at) / Fold change /veh C10orf10 (11716521_a_at) / RFU C5orf56 (11738089_at) / Fold change /veh C5orf56 (11738089_at) / RFU CYB561 (11721691_x_at) / Fold change /veh CYB561 (11721691_x_at) / RFU ANKRD19P (11752326_a_at) / Fold change /veh ANKRD19P (11752326_a_at) / RFU OR2T12 /// OR2T33 /// OR2T8 (11738714_s_at) / Fold change /veh OR2T12 /// OR2T33 /// OR2T8 (11738714_s_at) / RFU VCAN (11748164_a_at) / Fold change /veh VCAN (11748164_a_at) / RFU JSRP1 (11732532_at) / Fold change /veh JSRP1 (11732532_at) / RFU KRTAP10-11 (11738290_x_at) / Fold change /veh KRTAP10-11 (11738290_x_at) / RFU MYO3A (11730013_a_at) / Fold change /veh MYO3A (11730013_a_at) / RFU EBF3 (11725865_a_at) / Fold change /veh EBF3 (11725865_a_at) / RFU CAMK2N1 (11719241_x_at) / Fold change /veh CAMK2N1 (11719241_x_at) / RFU C5orf56 (11738088_a_at) / Fold change /veh C5orf56 (11738088_a_at) / RFU OLFML3 (11715873_a_at) / Fold change /veh OLFML3 (11715873_a_at) / RFU LOC100653217 /// NTM (11731650_a_at) / Fold change /veh LOC100653217 /// NTM (11731650_a_at) / RFU MAPK11 (11762145_a_at) / Fold change /veh MAPK11 (11762145_a_at) / RFU FIZ1 (11724087_x_at) / Fold change /veh FIZ1 (11724087_x_at) / RFU OASL (11726364_x_at) / Fold change /veh OASL (11726364_x_at) / RFU SOX15 (11748057_x_at) / Fold change /veh SOX15 (11748057_x_at) / RFU CD79A (11719716_a_at) / Fold change /veh CD79A (11719716_a_at) / RFU HIST1H1D (11736915_at) / Fold change /veh HIST1H1D (11736915_at) / RFU CASKIN2 (11723855_a_at) / Fold change /veh CASKIN2 (11723855_a_at) / RFU LOC730098 (11760151_x_at) / Fold change /veh LOC730098 (11760151_x_at) / RFU OR4N2 (11742367_at) / Fold change /veh OR4N2 (11742367_at) / RFU PRRT2 (11749266_a_at) / Fold change /veh PRRT2 (11749266_a_at) / RFU SNX32 (11753110_a_at) / Fold change /veh SNX32 (11753110_a_at) / RFU CDHR5 (11726645_a_at) / Fold change /veh CDHR5 (11726645_a_at) / RFU RCAN1 (11760418_a_at) / Fold change /veh RCAN1 (11760418_a_at) / RFU FAM167A (11723789_a_at) / Fold change /veh FAM167A (11723789_a_at) / RFU FAM26E (11764081_at) / Fold change /veh FAM26E (11764081_at) / RFU ISYNA1 (11749810_s_at) / Fold change /veh ISYNA1 (11749810_s_at) / RFU ACY1 (11761880_at) / Fold change /veh ACY1 (11761880_at) / RFU 11764098_at / Fold change /veh 11764098_at / RFU SAMD14 (11745864_x_at) / Fold change /veh SAMD14 (11745864_x_at) / RFU NPB (11741838_a_at) / Fold change /veh NPB (11741838_a_at) / RFU TMPRSS6 (11731388_a_at) / Fold change /veh TMPRSS6 (11731388_a_at) / RFU KRTAP10-2 (11738614_at) / Fold change /veh KRTAP10-2 (11738614_at) / RFU ARHGAP8 /// PRR5-ARHGAP8 (11727945_x_at) / Fold change /veh ARHGAP8 /// PRR5-ARHGAP8 (11727945_x_at) / RFU KRTAP5-7 /// NADSYN1 (11734609_at) / Fold change /veh KRTAP5-7 /// NADSYN1 (11734609_at) / RFU RASL12 (11751679_a_at) / Fold change /veh RASL12 (11751679_a_at) / RFU CDKN2B (11736163_a_at) / Fold change /veh CDKN2B (11736163_a_at) / RFU PRF1 (11729649_at) / Fold change /veh PRF1 (11729649_at) / RFU, ZNF638 /// ZNF638-IT1 / Fold change vs veh, ZNF638 /// ZNF638-IT1 / RFU, PANK3 / Fold change vs veh, PANK3 / RFU, SH3YL1 / Fold change vs veh, SH3YL1 / RFU, ZEB2 / Fold change vs veh, ZEB2 / RFU, NRIP1 / Fold change vs veh, NRIP1 / RFU, PTTG1IP / Fold change vs veh, PTTG1IP / RFU, CAPN2 / Fold change vs veh, CAPN2 / RFU, MED14 / Fold change vs veh, MED14 / RFU, SNORA58 / Fold change vs veh, SNORA58 / RFU, C1orf63 / Fold change vs veh, C1orf63 / RFU, LRRFIP1 / Fold change vs veh, LRRFIP1 / RFU, NDUFAF7 / Fold change vs veh, NDUFAF7 / RFU, SLC12A2 / Fold change vs veh, SLC12A2 / RFU, IBTK / Fold change vs veh, IBTK / RFU, ESF1 / Fold change vs veh, ESF1 / Fold change vs veh, TMEM50B / RFU, TAOK1 / Fold change vs veh, TAOK1 / RFU, ACBD3 / Fold change vs veh, ACBD3 / RFU, TMA16 / Fold change vs veh, TMA16 / RFU, RWDD3 / Fold change vs veh, RWDD3 / RFU, BCAT1 / Fold change vs veh, BCAT1 / RFU, EDEM3 / Fold change vs veh, EDEM3 / RFU, TMEM33 / Fold change vs veh, TMEM33 / RFU, WDR75 / Fold change vs veh, WDR75 / RFU, AHCTF1 / Fold change vs veh, AHCTF1 / RFU, TFRC / Fold change vs veh, TFRC / RFU, ZDHHC17 / Fold change vs veh, ZDHHC17 / RFU, NOM1 / Fold change vs veh, NOM1 / RFU, ARL8B / Fold change vs veh, ARL8B / RFU, ZBTB11 / Fold change vs veh, ZBTB11 / RFU, TAMM41 / Fold change vs veh, TAMM41 / RFU, KIAA1704 /// LOC100996395 / Fold change vs veh, KIAA1704 /// LOC100996395 / RFU, ING1 / Fold change vs veh, ING1 / RFU, TRMT61B / Fold change vs veh, TRMT61B / RFU, FUBP3 / Fold change vs veh, FUBP3 / RFU, TP53 / Fold change vs veh, TP53 / RFU, TNKS2 / Fold change vs veh, TNKS2 / RFU, ZFP14 / Fold change vs veh, ZFP14 / RFU, ACTR2 / Fold change vs veh, ACTR2 / RFU, PPP3R1 / Fold change vs veh, PPP3R1 / RFU, PIK3R1 / Fold change vs veh, PIK3R1 / RFU, HNRNPA1 / Fold change vs veh, HNRNPA1 / RFU, RNF170 / Fold change vs veh, RNF170 / RFU, ZNF28 / Fold change vs veh, ZNF28 / RFU, RNGTT / Fold change vs veh, RNGTT / RFU, OGT / Fold change vs veh, OGT / RFU, BRD1 / Fold change vs veh, BRD1 / RFU, MARS / Fold change vs veh, MARS / RFU, ZNF655 / Fold change vs veh, ZNF655 / RFU, FAHD1 / Fold change vs veh, FAHD1 / RFU, BDP1 / Fold change vs veh, BDP1 / RFU, LRRCC1 / Fold change vs veh, LRRCC1 / RFU, ARID1A / Fold change vs veh, ARID1A / RFU, ZNF146 / Fold change vs veh, ZNF146 / RFU, ZNF330 / Fold change vs veh, ZNF330 / RFU, GPN3 / Fold change vs veh, GPN3 / RFU, C9orf123 / Fold change vs veh, C9orf123 / RFU, N4BP2L2 / Fold change vs veh, N4BP2L2 / RFU, ARFIP1 / Fold change vs veh, ARFIP1 / RFU, FAM179B / Fold change vs veh, FAM179B / RFU, BCL10 / Fold change vs veh, BCL10 / RFU, UHRF1BP1L / Fold change vs veh, UHRF1BP1L / RFU, BET1 / Fold change vs veh, BET1 / RFU, CNOT2 / Fold change vs veh, CNOT2 / RFU, ZNF268 / Fold change vs veh, ZNF268 / Fold change vs veh, ZNF507 / RFU, DGCR2 / Fold change vs veh, DGCR2 / RFU, WDSUB1 / Fold change vs veh, WDSUB1 / Fold change vs veh, HSP90B1 /// MIR3652 / RFU, ADSS / Fold change vs veh, ADSS / RFU, GK / Fold change vs veh, GK / RFU, ZNF148 / Fold change vs veh, ZNF148 / RFU, TAF9 / Fold change vs veh, TAF9 / RFU, SLC1A5 / Fold change vs veh, SLC1A5 / RFU, SLMO2 / Fold change vs veh, SLMO2 / RFU, ABCC4 / Fold change vs veh, ABCC4 / RFU, LOC101060439 /// RAP1B / Fold change vs veh, LOC101060439 /// RAP1B / RFU, RFX7 / Fold change vs veh, RFX7 / RFU, GTPBP10 / Fold change vs veh, GTPBP10 / RFU, CNEP1R1 / Fold change vs veh, CNEP1R1 / RFU, BIVM-ERCC5 /// ERCC5 / Fold change vs veh, BIVM-ERCC5 /// ERCC5 / RFU, ILF3 / Fold change vs veh, ILF3 / RFU 11762660_at / Fold change /veh 11762660_at / RFU VCAN (11757783_s_at) / Fold change /veh VCAN (11757783_s_at) / RFU DDX43 (11728927_at) / Fold change /veh DDX43 (11728927_at) / RFU KRT8 (11758188_x_at) / Fold change /veh KRT8 (11758188_x_at) / RFU NKD1 (11759106_at) / Fold change /veh NKD1 (11759106_at) / RFU SRD5A1 (11742802_a_at) / Fold change /veh SRD5A1 (11742802_a_at) / RFU TPSAB1 /// TPSB2 (11721975_s_at) / Fold change /veh TPSAB1 /// TPSB2 (11721975_s_at) / RFU GSTM3 (11746129_a_at) / Fold change /veh GSTM3 (11746129_a_at) / RFU IL23R (11737362_x_at) / Fold change /veh IL23R (11737362_x_at) / RFU TMEM51 (11727254_a_at) / Fold change /veh TMEM51 (11727254_a_at) / RFU PIWIL2 (11732686_x_at) / Fold change /veh PIWIL2 (11732686_x_at) / RFU ORM1 (11744905_x_at) / Fold change /veh ORM1 (11744905_x_at) / RFU CCDC152 (11743942_at) / Fold change /veh CCDC152 (11743942_at) / RFU ECM1 (11717891_a_at) / Fold change /veh ECM1 (11717891_a_at) / RFU IL23R (11748794_a_at) / Fold change /veh IL23R (11748794_a_at) / RFU TNFAIP8L3 (11732012_x_at) / Fold change /veh TNFAIP8L3 (11732012_x_at) / RFU MBOAT4 (11741988_at) / Fold change /veh MBOAT4 (11741988_at) / RFU 11764193_at / Fold change /veh 11764193_at / RFU TMEM53 (11763286_at) / Fold change /veh TMEM53 (11763286_at) / RFU MAGEB2 (11727129_at) / Fold change /veh MAGEB2 (11727129_at) / RFU TMEM200A (11744735_a_at) / Fold change /veh TMEM200A (11744735_a_at) / RFU CCDC152 (11751479_a_at) / Fold change /veh CCDC152 (11751479_a_at) / RFU FAM211A (11726209_a_at) / Fold change /veh FAM211A (11726209_a_at) / RFU RGS16 (11746705_a_at) / Fold change /veh RGS16 (11746705_a_at) / RFU VCAN (11755009_s_at) / Fold change /veh VCAN (11755009_s_at) / RFU RHOB (11743442_s_at) / Fold change /veh RHOB (11743442_s_at) / RFU RGS16 (11720943_a_at) / Fold change /veh RGS16 (11720943_a_at) / RFU RGS16 (11720944_at) / Fold change /veh RGS16 (11720944_at) / RFU, VPS4B / Fold change vs veh, VPS4B / RFU, CREB1 / Fold change vs veh, CREB1 / RFU, DNAJC13 / Fold change vs veh, DNAJC13 / RFU, GNAQ / Fold change vs veh, GNAQ / RFU, CDK5R1 / Fold change vs veh, CDK5R1 / RFU, ZRANB3 / Fold change vs veh, ZRANB3 / RFU, CUL4A / Fold change vs veh, CUL4A / RFU, CCNY / Fold change vs veh, CCNY / RFU, UFL1 / Fold change vs veh, UFL1 / RFU, COG3 / Fold change vs veh, COG3 / RFU, DIAPH2 / Fold change vs veh, DIAPH2 / RFU, SKA2 / Fold change vs veh, SKA2 / RFU, AFF3 / Fold change vs veh, AFF3 / RFU, LMF1 / Fold change vs veh, LMF1 / RFU, IPO11 / Fold change vs veh, IPO11 / RFU, DFFB / Fold change vs veh, DFFB / RFU, FOXP1 / Fold change vs veh, FOXP1 / RFU, CARD8 / Fold change vs veh, CARD8 / RFU, STRN3 / Fold change vs veh, STRN3 / RFU, ADK / Fold change vs veh, ADK / RFU, RASSF2 / Fold change vs veh, RASSF2 / RFU, WIPF1 / Fold change vs veh, WIPF1 / RFU, LARP1B / Fold change vs veh, LARP1B / RFU, RASA1 / Fold change vs veh, RASA1 / RFU, RB1 / Fold change vs veh, RB1 / RFU, PPFIA1 / Fold change vs veh, PPFIA1 / RFU, MAT2A / Fold change vs veh, MAT2A / RFU, CCT5 / Fold change vs veh, CCT5 / RFU, WDR92 / Fold change vs veh, WDR92 / RFU, CUX1 / Fold change vs veh, CUX1 / RFU, TTC7A / Fold change vs veh, TTC7A / RFU, TMEM135 / Fold change vs veh, TMEM135 / RFU, DEPTOR / Fold change vs veh, DEPTOR / RFU, CPM / Fold change vs veh, CPM / RFU, DNAJB6 / Fold change vs veh, DNAJB6 / RFU, CACNA2D3 / Fold change vs veh, CACNA2D3 / RFU, DTX4 / Fold change vs veh, DTX4 / RFU, TFCP2 / Fold change vs veh, TFCP2 / RFU, GMCL1 /// GMCL1P1 / Fold change vs veh, GMCL1 /// GMCL1P1 / RFU, AEBP2 / Fold change vs veh, AEBP2 / RFU, SNHG1 /// SNORD22 /// SNORD25 /// SNORD26 /// SNORD27 /// SNORD28 /// SNORD29 /// SNORD31 / Fold change vs veh, SNHG1 /// SNORD22 /// SNORD25 /// SNORD26 /// SNORD27 /// SNORD28 /// SNORD29 /// SNORD31 / Fold change (Aza/veh), C12orf56 (ProbeSet 11735607_a_at) / Fold change (ACY-1035/veh), C12orf56 (ProbeSet 11735607_a_at) / Fold change (Aza/veh), FGFR1OP (ProbeSet 11751329_s_at) / Fold change (ACY-1035/veh), FGFR1OP (ProbeSet 11751329_s_at) / Fold change (Aza/veh), VPS36 (ProbeSet 11739960_a_at) / Fold change (ACY-1035/veh), VPS36 (ProbeSet 11739960_a_at) / RFU SYPL1 (11715823_x_at) / Fold change /veh SYPL1 (11715823_x_at) / RFU IGFBP7 (11715501_s_at) / Fold change /veh IGFBP7 (11715501_s_at) / RFU REEP3 (11722064_at) / Fold change /veh REEP3 (11722064_at) / RFU IGLL1 (11728026_x_at) / Fold change /veh IGLL1 (11728026_x_at): dose or concentration left out as unconfirmed
Conditions: ProbeSet 11732281_s_at; LIST D

Nc1ccc(-c2cccs2)cc1NC(=O)c1ccc2c(c1)cc(C1CC1)n2CCN1CCOCC1 [ACY-1035]
Fold change vs veh, FOXP1: 0.88
